How the values were obtained:
Type in all cases: in vivo
[1] = test system: Italian ryegrass (Lolium multiflorum); experiment: Test A preemergence, visual injury rating
Method in brief: (§1)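 Pre- and postemergence greenhouse screen. Soil: loam + sand. Spray carrier: solvent mixture, non-phytotoxic, with surfactant. Post timing at 1–2 leaves, height 2–10 cm. Readout: visual injury on a 0–100 scale roughly 10 days after application, untreated plants as reference.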

[2] = test system: barnyardgrass (Echinochloa crus-galli); experiment: Test A preemergence, visual injury rating
Method in brief: as §1

[3] = test system: giant foxtail (Setaria faberii); experiment: Test A preemergence, visual injury rating
Method in brief: as §1

kochia (Kochia scoparia) [4] = experiment: Test A preemergence, visual injury rating
Method in brief: as §1

[5] = test system: pigweed (Amaranthus retroflexus); experiment: Test A preemergence, visual injury rating; conditions: 0 to 100 scale (0 no effect, 100 complete control)
Method in brief: as §1

[6] = test system: ragweed (common ragweed, Ambrosia elatior); experiment: Test A preemergence, visual injury rating
Method in brief: as §1

[7] = test system: chickweed (common chickweed, Stellaria media); experiment: Test C postemergence, plant response rating; conditions: for Chickweed plant response rating: scale 0 to 100 (0 no effect, 100 complete control)
Method in brief: (§2)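 After sowing in loam–sand blend or silt loam, pots were sprayed preemergence; separately grown 1- to 4-leaf plants were sprayed postemergence. Following 13 to 15 d under greenhouse conditions, injury was rated visually on a 0 to 100 scale.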

corn (Zea mays) = experiment: Test C postemergence, plant response rating; conditions: for Corn plant response rating: scale 0 to 100 (0 no effect, 100 complete control)
Method in brief: as §2

[8] = test system: crabgrass, large (large crabgrass, Digitaria sanguinalis); experiment: Test C postemergence, plant response rating; conditions: for Crabgrass, Large plant response rating: scale 0 to 100 (0 no effect, 100 complete control)
Method in brief: as §2

[9] = test system: galium (catchweed bedstraw, Galium aparine); experiment: Test C postemergence, plant response rating; conditions: for Galium plant response rating: scale 0 to 100 (0 no effect, 100 complete control)
Method in brief: as §2

kochia (Kochia scoparia) [10] = experiment: Test C postemergence, plant response rating; conditions: for Kochia plant response rating: scale 0 to 100 (0 no effect, 100 complete control)
Method in brief: as §2

[11] = test system: lambsquarters (Chenopodium album); experiment: Test C postemergence, plant response rating; conditions: for Lambsquarters plant response rating: scale 0 to 100 (0 no effect, 100 complete control)
Method in brief: as §2

[12] = test system: nutsedge, yellow (yellow nutsedge, Cyperus esculentus); experiment: Test C postemergence, plant response rating; conditions: for Nutsedge, Yellow plant response rating: scale 0 to 100 (0 no effect, 100 complete control)
Method in brief: as §2

[13] = test system: oat, wild (wild oat Avena fatua); experiment: Test C postemergence, plant response rating; conditions: for Oat, Wild plant response rating: scale 0 to 100 (0 no effect, 100 complete control)
Method in brief: as §2

[14] = test system: ragweed (common ragweed, Ambrosia elatior); experiment: Test C postemergence, plant response rating; conditions: for Ragweed plant response rating: scale 0 to 100 (0 no effect, 100 complete control)
Method in brief: as §2

[15] = test system: ryegrass, Italian (Italian ryegrass, Lolium multiflorum); experiment: Test C postemergence, plant response rating; conditions: for Ryegrass, Italian plant response rating: scale 0 to 100 (0 no effect, 100 complete control)
Method in brief: as §2

soybean (Glycine max) = experiment: Test C postemergence, plant response rating; conditions: for Soybean plant response rating: scale 0 to 100 (0 no effect, 100 complete control)
Method in brief: as §2

[16] = test system: waterhemp (common waterhemp, Amaranthus rudis); experiment: Test C postemergence, plant response rating; conditions: for Waterhemp plant response rating: scale 0 to 100 (0 no effect, 100 complete control)
Method in brief: as §2

[17] = 125 g ai/ha, 0 to 100 scale (0 no effect, 100 complete control)
[18] = 500 g ai/ha, 0 to 100 scale (0 no effect, 100 complete control)
[19] = 31 g ai/ha, 0 to 100 scale, 0 no effect, 100 complete control

N#CCCOC(=O)c1c(Br)cccc1Oc1ncc(Cl)cn1 [Compound 7]
40: Galium plant response rating ([9]; 125 g ai/ha) | Soybean plant response rating (soybean (Glycine max); 62 g ai/ha)
5: Plant response rating, Chickweed ([7]; 16 g ai/ha, scale 0 to 100) | Plant response rating, Chickweed ([7]; 31 g ai/ha, scale 0 to 100) | Plant response rating, Corn (corn (Zea mays); 16 g ai/ha, scale 0 to 100) | Plant response rating, Crabgrass, Large ([8]; 16 g ai/ha, scale 0 to 100) | Plant response rating, Crabgrass, Large ([8]; 31 g ai/ha, scale 0 to 100) | Plant response rating, Lambsquarters ([11]; 16 g ai/ha, scale 0 to 100) | Nutsedge, Yellow plant response rating ([12]; 62 g ai/ha) | Nutsedge, Yellow plant response rating ([12]; 125 g ai/ha) | Oat, Wild plant response rating ([13]; 62 g ai/ha) | Oat, Wild plant response rating ([13]; 125 g ai/ha)
55: Lambsquarters plant response rating ([11]; 125 g ai/ha)
30: Ryegrass, Italian plant response rating [1, 18] | Chickweed plant response rating ([7]; 62 g ai/ha) | Plant response rating, Kochia (kochia (Kochia scoparia) [10]; 31 g ai/ha, scale 0 to 100) | Lambsquarters plant response rating ([11]; 62 g ai/ha) | Ryegrass, Italian plant response rating ([15]; 62 g ai/ha) | Ryegrass, Italian plant response rating ([15]; 125 g ai/ha)
65: Waterhemp plant response rating ([16]; 125 g ai/ha)
25: Kochia plant response rating (kochia (Kochia scoparia) [10]; 62 g ai/ha) | Plant response rating, Lambsquarters ([11]; 31 g ai/ha, scale 0 to 100) | Ragweed plant response rating ([14]; 125 g ai/ha) | Plant response rating, Soybean (soybean (Glycine max); 16 g ai/ha, scale 0 to 100) | Plant response rating, Soybean (soybean (Glycine max); 31 g ai/ha, scale 0 to 100)
0: Ryegrass, Italian plant response rating [1, 17] | Plant response rating, Galium ([9]; 16 g ai/ha, scale 0 to 100) | Plant response rating, Galium ([9]; 31 g ai/ha, scale 0 to 100) | Plant response rating, Kochia (kochia (Kochia scoparia) [10]; 16 g ai/ha, scale 0 to 100) | Plant response rating, Nutsedge, Yellow ([12]; 16 g ai/ha, scale 0 to 100) | Plant response rating, Nutsedge, Yellow ([12]; 31 g ai/ha, scale 0 to 100) | Plant response rating, Oat, Wild ([13]; 16 g ai/ha, scale 0 to 100) | Plant response rating, Oat, Wild ([13]; 31 g ai/ha, scale 0 to 100) | Plant response rating, Ryegrass, Italian ([15]; 31 g ai/ha, scale 0 to 100)
35: Plant response rating, Waterhemp ([16]; 16 g ai/ha, scale 0 to 100)
100: Barnyardgrass plant response rating [2, 18] | Foxtail, Giant plant response rating [3, 18] | Kochia plant response rating (kochia (Kochia scoparia) [4]; [18]) | Pigweed plant response rating ([5]; 125 g ai/ha) | Pigweed plant response rating ([5]; 500 g ai/ha)
60: Waterhemp plant response rating ([16]; 62 g ai/ha)
15: Corn plant response rating (corn (Zea mays); 125 g ai/ha) | Crabgrass, Large plant response rating ([8]; 125 g ai/ha)
20: Crabgrass, Large plant response rating ([8]; 62 g ai/ha) | Kochia plant response rating (kochia (Kochia scoparia) [10]; 125 g ai/ha) | Plant response rating, Ragweed ([14]; 31 g ai/ha, scale 0 to 100) | Ragweed plant response rating ([14]; 62 g ai/ha)
50: Barnyardgrass plant response rating [2, 17] | Kochia plant response rating (kochia (Kochia scoparia) [4]; [17]) | Ragweed plant response rating [6, 18] | Chickweed plant response rating ([7]; 125 g ai/ha)
90: Foxtail, Giant plant response rating [3, 17]
10: Plant response rating, Corn (corn (Zea mays); 31 g ai/ha, scale 0 to 100) | Corn plant response rating (corn (Zea mays); 62 g ai/ha) | Galium plant response rating ([9]; 62 g ai/ha) | Plant response rating, Ragweed ([14]; 16 g ai/ha, scale 0 to 100) | Plant response rating, Ryegrass, Italian ([15]; 16 g ai/ha, scale 0 to 100)
70: Soybean plant response rating (soybean (Glycine max); 125 g ai/ha) | Plant response rating, Waterhemp ([16]; 31 g ai/ha, scale 0 to 100)

O=C(CCCC(F)(F)F)c1c(Cl)cccc1Oc1ncc(Cl)cn1 [Compound 143]
95: Galium plant response rating ([9]; 125 g ai/ha) | Lambsquarters plant response rating ([11]; 125 g ai/ha)
15: Plant response rating, Corn (corn (Zea mays); 16 g ai/ha, scale of 0 to 100) | Crabgrass, Large plant response rating ([8]; 62 g ai/ha)
50: Plant response rating, Ragweed ([14]; 31 g ai/ha, scale 0 to 100)
100: Plant response rating, Barnyardgrass [2, 17] | Plant response rating, Foxtail, Giant [3, 19] | Plant response rating, Foxtail, Giant [3, 17] | Plant response rating, Kochia (kochia (Kochia scoparia) [4]; [19]) | Plant response rating, Kochia (kochia (Kochia scoparia) [4]; [17]) | Chickweed plant response rating ([7]; 125 g ai/ha) | Plant response rating, Kochia (kochia (Kochia scoparia) [10]; 31 g ai/ha, scale 0 to 100) | Kochia plant response rating (kochia (Kochia scoparia) [10]; 62 g ai/ha) | Kochia plant response rating (kochia (Kochia scoparia) [10]; 125 g ai/ha)
55: Ragweed plant response rating ([14]; 62 g ai/ha) | Ragweed plant response rating ([14]; 125 g ai/ha) | Soybean plant response rating (soybean (Glycine max); 62 g ai/ha)
10: Plant response rating, Oat, Wild ([13]; 16 g ai/ha, scale of 0 to 100) | Plant response rating, Oat, Wild ([13]; 31 g ai/ha, scale 0 to 100) | Oat, Wild plant response rating ([13]; 62 g ai/ha) | Plant response rating, Ryegrass, Italian ([15]; 31 g ai/ha, scale 0 to 100) | Ryegrass, Italian plant response rating ([15]; 62 g ai/ha)
80: Plant response rating, Chickweed ([7]; 16 g ai/ha, scale of 0 to 100) | Plant response rating, Chickweed ([7]; 31 g ai/ha, scale 0 to 100) | Galium plant response rating ([9]; 62 g ai/ha) | Plant response rating, Waterhemp ([16]; 31 g ai/ha, scale 0 to 100)
20: Plant response rating, Ryegrass, Italian [1, 19] | Plant response rating, Barnyardgrass [2, 19] | Plant response rating, Corn (corn (Zea mays); 31 g ai/ha, scale 0 to 100) | Corn plant response rating (corn (Zea mays); 62 g ai/ha) | Oat, Wild plant response rating ([13]; 125 g ai/ha) | Plant response rating, Ragweed ([14]; 16 g ai/ha, scale of 0 to 100) | Ryegrass, Italian plant response rating ([15]; 125 g ai/ha)
0: Plant response rating, Ragweed [6, 19] | Plant response rating, Ragweed [6, 17] | Plant response rating, Nutsedge, Yellow ([12]; 16 g ai/ha, scale of 0 to 100)
70: Plant response rating, Ryegrass, Italian [1, 17]
30: Corn plant response rating (corn (Zea mays); 125 g ai/ha) | Crabgrass, Large plant response rating ([8]; 125 g ai/ha) | Plant response rating, Soybean (soybean (Glycine max); 16 g ai/ha, scale of 0 to 100)
65: Soybean plant response rating (soybean (Glycine max); 125 g ai/ha)
85: Chickweed plant response rating ([7]; 62 g ai/ha) | Plant response rating, Galium ([9]; 31 g ai/ha, scale 0 to 100)
25: Nutsedge, Yellow plant response rating ([12]; 125 g ai/ha)
40: Plant response rating, Soybean (soybean (Glycine max); 31 g ai/ha, scale 0 to 100)
90: Plant response rating, Lambsquarters ([11]; 31 g ai/ha, scale 0 to 100) | Lambsquarters plant response rating ([11]; 62 g ai/ha) | Waterhemp plant response rating ([16]; 125 g ai/ha)
5: Plant response rating, Crabgrass, Large ([8]; 16 g ai/ha, scale of 0 to 100) | Plant response rating, Crabgrass, Large ([8]; 31 g ai/ha, scale 0 to 100) | Plant response rating, Nutsedge, Yellow ([12]; 31 g ai/ha, scale 0 to 100) | Nutsedge, Yellow plant response rating ([12]; 62 g ai/ha) | Plant response rating, Ryegrass, Italian ([15]; 16 g ai/ha, scale of 0 to 100)
98: Plant response rating, Kochia (kochia (Kochia scoparia) [10]; 16 g ai/ha, scale of 0 to 100)
75: Plant response rating, Galium ([9]; 16 g ai/ha, scale of 0 to 100) | Plant response rating, Lambsquarters ([11]; 16 g ai/ha, scale of 0 to 100) | Plant response rating, Waterhemp ([16]; 16 g ai/ha, scale of 0 to 100)

— US11053204B2, “Pyrimidinyloxy benzene derivatives as herbicides” (FMC Corporation, priority 2015, dated 2021)
